# Reference: patent US20030232419A1, “Molecules interacting with CASL (MICAL) polynucleotides, polypeptides, and methods of using the same” (priority 2002, published 2003)
# T1: NADPH-cytochrome P450 reductase (Homo sapiens, UniProt P16435)
# T1 sequence (P16435 1-677): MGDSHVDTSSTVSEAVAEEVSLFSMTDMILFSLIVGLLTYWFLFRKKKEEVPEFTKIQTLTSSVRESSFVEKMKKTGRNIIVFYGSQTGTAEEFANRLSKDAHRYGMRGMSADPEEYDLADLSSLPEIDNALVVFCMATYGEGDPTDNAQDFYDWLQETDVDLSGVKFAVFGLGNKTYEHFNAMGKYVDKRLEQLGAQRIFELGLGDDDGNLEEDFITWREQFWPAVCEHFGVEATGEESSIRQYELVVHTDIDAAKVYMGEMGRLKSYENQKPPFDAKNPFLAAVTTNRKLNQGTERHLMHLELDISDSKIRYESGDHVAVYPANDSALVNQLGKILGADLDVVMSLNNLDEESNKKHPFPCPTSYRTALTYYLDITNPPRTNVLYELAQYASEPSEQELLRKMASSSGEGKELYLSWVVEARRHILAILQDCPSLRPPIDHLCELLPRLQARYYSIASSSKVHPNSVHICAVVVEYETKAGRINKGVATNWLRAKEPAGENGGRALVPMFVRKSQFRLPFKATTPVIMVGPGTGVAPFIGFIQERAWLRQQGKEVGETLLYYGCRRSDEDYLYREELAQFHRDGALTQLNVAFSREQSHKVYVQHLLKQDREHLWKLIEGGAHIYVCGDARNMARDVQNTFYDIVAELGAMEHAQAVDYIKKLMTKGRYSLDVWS
# B1: Unc5, Drosophila (receptor, UniProt Q95TU8 31-1072, looked up)
# chain: ELPQLDYGSLSASLEEDAIDPLTAMAPFANSLVTEESAQHKNNAELLGNSSEDENVRPQQGSSSSGLGSSGAAGGSGILLEEFNSGKLSPGEASNTLPIFLIEPESVFVVKNRPAVLKCKASHSLQVIFKCSGSSQPPPSTHETHVDPHTGVNMEEVTATIHRDLVDEFFGDGPFKCECHAWSSRGVVKSQAATVHIAYIRKSFNQSPTSLRLELGSRAELRCEPPGGFPEPKLTWHKNNAVITADSEPGITVSAGTLIFRQVALQHMANYSCSAENIAGRRVSDSAVLIVYVNGGWSTWSPWRECKCAGKPSQGRKRSRTCNNPMPLNGGAQCPGPQIQKSADCAACPEDTQIVSPDGFDISSSKRMARWSAWSDWSICSAECIQVRRRKCLTQGQTQISSEAEEAGDLLLGAPGVGMAALIAAAGVGAVGSPSEATGSSSDIIPGYGKSLCAGKDIQTAECRGEQCQIGKDDFDWTLYLGLAFITAVCFAFGTALICCARRGIRTNPHYNMARSVMDADYMPGVVEKKEMRMHIEASNMGYDYVNPGHRYLPGEHIMGMGIGCGGVTEHHYDVPNLSANYTNPIDHLSVDYLSETGESSTADTSNSTFDMNGKLSILNASKSSTYEMLGSAGGQLRLYGGELLLFVPEHAIGKHVKKHVSLLLLSDECSRVSCATESSILCSSVVHSAPRNYSFVKPVILKIPHCLVAPEQWHVHIYHADSEHDELSVNWRRAVSVGEETINTPMFVQLEATHVFIMTEQLGHFTVVAEPRIQQPSIKMKLLAFSQHTPPSNANCSLRIYVVKDFPNSRDICANVEAKLGGSFLGESQVFAFTLNSRNLNIRVRSADVEAAAPYEHAIPYQHILSNNSILHCEFSLRRQDQNSLCVDFGQGSEDDYYTFNIPAHSMSGSAEELASTTNTTISIDRQGNYVNESCVMDFVQLPHATKRLICGALDPPRADERDWRLLAKKLNTDRYIAYFATKASPTEQILNLWECRANSSPGSSSNSVSHTIMALLLTLKEMGRQDVLDIIVETIGPLWI
# notes: Specificity control in the co-immunoprecipitation
# Assays:
# [1] = tested on: Sema3A-mediated axonal repulsion of NGF-dependent DRG axons; experiment: in vitro rat DRG growth cone repulsion assay using Sema 3A-secreting 293 cells; assay type: cell-based; conditions: for attenuation of Sema 3A mediated axonal repulsion: inhibitors of other redox enzymes at concentrations previously shown to be effective in cell culture conditions
# Description: FIG. 4A provides a schematic diagram of the rat D E14/15 Rat DRG explants were co-cultured with 293 cells expressing Sema 3A and grown for 48 hours in the presence of an inhibitor or vehicle. Axonal outgrowth was determined by measuring proximal (P) and distal (D) axon lengths.
# DRG repulsion assays were performed as described (Messersmith et al., 1995).
# (§1) Scoring was done by splitting explants into quadrants and scoring all growth cones as either collapsed or not-collapsed.
# [2] = tested on: Sema3A-mediated growth cone collapse in NGF-dependent DRG neurons; experiment: DRG growth cone collapse assay with AP-Sema3A; assay type: cell-based, rat; conditions: 25 mM EGCG, 3 hours in EGCG prior to 1 hour 1 nM AP-Sema3A
# Excerpt: FIG. 4C provides a graph that quantitates the effects of oxidation/reduction enzyme inhibitors on Sema 3A repulsion scored as the ratio of the axon lengths on the proximal and distal sides of the explant (P/D ratio), and on Sema3A-mediated growth cone collapse indicated as % collapsed growth cones (gray). In repulsion assays, outgrowth of DRG axons on the side distal to the 293 cells appeared normal. […] For Rote, n=4, however only 4 out of 12 explants survived. (**=p<0.0001; *=p<0.001; paired t-test). Scale bar=[…].
# as §1
# [3] = target: p-hydroxybenzoate hydroxylase (pHBH) (Pseudomonas aeruginosa, UniProt P20586); conditions: cited from earlier work
# steroid 5a-reductase = conditions: similar concentrations of EGCG; cited from earlier work
# [4] = target: T1, NADPH-cytochrome P450 reductase; conditions: similar concentrations of EGCG; cited from earlier work
# telomerase = telomerase (Homo sapiens, UniProt O14746); conditions: similar concentrations of EGCG; cited from earlier work
# [5] = target: matrix metalloproteinase MMP-9 (Homo sapiens, UniProt P14780); conditions: similar concentrations of EGCG; cited from earlier work
# phenol sulfotransferase = conditions: similar concentrations of EGCG; cited from earlier work
# [6] = target: T2, Drosophila MICAL (endogenous protein in embryo lysates) (Drosophila, UniProt Q86BA1 1-4723); experiment: co-immunoprecipitation from embryo lysates with MICAL-CT antibodies, Western blot
# T2 construct: also called "large" MICAL isoform; long isoform
# Chain of telomerase (O14746 whole entry): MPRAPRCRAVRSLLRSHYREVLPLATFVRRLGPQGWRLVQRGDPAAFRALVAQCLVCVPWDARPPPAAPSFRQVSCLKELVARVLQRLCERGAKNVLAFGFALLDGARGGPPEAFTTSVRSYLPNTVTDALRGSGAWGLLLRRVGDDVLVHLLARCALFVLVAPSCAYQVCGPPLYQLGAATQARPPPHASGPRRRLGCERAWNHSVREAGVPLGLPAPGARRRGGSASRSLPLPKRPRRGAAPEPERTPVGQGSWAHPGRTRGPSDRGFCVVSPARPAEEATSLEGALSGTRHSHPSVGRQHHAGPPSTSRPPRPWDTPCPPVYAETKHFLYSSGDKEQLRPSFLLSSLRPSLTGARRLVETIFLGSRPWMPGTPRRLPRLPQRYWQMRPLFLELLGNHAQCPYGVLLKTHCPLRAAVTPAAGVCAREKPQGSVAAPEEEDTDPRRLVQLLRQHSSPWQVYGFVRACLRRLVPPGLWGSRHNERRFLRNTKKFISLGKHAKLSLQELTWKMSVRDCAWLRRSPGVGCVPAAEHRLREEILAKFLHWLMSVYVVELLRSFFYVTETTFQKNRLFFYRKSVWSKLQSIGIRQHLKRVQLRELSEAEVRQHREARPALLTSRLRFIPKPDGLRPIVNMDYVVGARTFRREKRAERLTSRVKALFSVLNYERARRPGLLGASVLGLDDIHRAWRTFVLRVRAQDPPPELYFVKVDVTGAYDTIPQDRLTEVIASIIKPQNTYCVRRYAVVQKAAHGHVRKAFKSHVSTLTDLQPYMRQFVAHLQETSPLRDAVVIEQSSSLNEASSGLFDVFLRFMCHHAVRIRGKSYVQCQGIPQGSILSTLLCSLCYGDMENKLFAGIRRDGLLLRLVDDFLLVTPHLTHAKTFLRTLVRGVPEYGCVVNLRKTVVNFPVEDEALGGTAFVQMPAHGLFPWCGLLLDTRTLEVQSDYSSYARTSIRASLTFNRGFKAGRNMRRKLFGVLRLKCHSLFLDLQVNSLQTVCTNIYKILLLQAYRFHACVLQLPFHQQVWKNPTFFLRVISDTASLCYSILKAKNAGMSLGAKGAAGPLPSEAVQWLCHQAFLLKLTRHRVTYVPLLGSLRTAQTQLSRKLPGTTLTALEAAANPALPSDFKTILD
# Chain of p-hydroxybenzoate hydroxylase (pHBH) (P20586 whole entry): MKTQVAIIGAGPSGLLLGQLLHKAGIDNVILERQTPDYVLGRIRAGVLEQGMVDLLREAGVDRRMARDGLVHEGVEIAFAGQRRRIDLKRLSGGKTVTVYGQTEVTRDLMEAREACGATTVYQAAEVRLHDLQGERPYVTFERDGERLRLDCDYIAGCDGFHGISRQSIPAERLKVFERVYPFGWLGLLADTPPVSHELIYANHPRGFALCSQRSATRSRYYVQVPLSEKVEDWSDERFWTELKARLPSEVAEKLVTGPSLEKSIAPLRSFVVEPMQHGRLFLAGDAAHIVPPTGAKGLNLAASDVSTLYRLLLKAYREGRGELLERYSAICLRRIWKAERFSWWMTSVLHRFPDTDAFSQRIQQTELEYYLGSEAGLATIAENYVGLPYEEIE
# Chain of matrix metalloproteinase MMP-9 (P14780 94-707): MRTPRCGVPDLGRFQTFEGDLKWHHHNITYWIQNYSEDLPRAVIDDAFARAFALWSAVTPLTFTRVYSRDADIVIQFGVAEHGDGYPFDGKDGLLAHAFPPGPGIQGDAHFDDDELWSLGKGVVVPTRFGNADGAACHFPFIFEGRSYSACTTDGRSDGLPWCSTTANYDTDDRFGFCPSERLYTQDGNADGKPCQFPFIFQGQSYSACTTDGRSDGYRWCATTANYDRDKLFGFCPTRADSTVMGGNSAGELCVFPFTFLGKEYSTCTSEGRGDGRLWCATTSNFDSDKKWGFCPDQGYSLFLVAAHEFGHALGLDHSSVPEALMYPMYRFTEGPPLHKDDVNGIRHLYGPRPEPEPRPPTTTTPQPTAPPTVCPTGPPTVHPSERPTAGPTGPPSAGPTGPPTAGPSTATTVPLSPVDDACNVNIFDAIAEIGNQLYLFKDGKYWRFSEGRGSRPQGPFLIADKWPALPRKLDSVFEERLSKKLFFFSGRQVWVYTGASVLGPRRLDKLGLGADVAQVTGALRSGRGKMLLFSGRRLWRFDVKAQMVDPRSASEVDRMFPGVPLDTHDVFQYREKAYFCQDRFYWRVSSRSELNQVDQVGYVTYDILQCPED
molecule,measurement,setting,value
Oc1ncnc2[nH]ncc12 [allopurinol],attenuation of Sema 3A mediated axonal repulsion,[1],No attenuation
C=C(C)[C@H]1Cc2c(ccc3c2O[C@@H]2COc4cc(OC)c(OC)cc4[C@@H]2C3=O)O1 [rotenone],attenuation of Sema 3A mediated axonal repulsion,[1],No attenuation
same,explants survived,"[1]; repulsion assay, n=4",4 out of 12
(−)-epigallocatechin gallate [EGCG],Sema3A repulsion,"[1]; 25 mM EGCG added to the growth media, E14/15 rat DRG explants co-cultured with Sema 3A 293 cells for 48 hours",completely neutralized
same,Sema3A-mediated growth cone collapse,[2],dramatically abrogates
same,inhibition of p-hydroxybenzoate hydroxylase (pHBH),[3],potent and selective inhibitors
same,inhibition of steroid 5a-reductase,steroid 5a-reductase,inhibit
same,inhibition of NADPH-cytochrome P450 reductase,[4],inhibit
same,inhibition of telomerase,telomerase,inhibit
same,inhibition of MMP-9,[5],inhibit
same,inhibition of phenol sulfotransferase,phenol sulfotransferase,inhibit
B1,binding result,[6],no binding
